The target of one assay is SsCOMT. The experiment in a line: Isothermal titration calorimetry (ITC), SsCOMT wild type. The assay is classed as binding, Saccharum spontaneum. The note with it: 25° C., SsCOMT WT, mean ± standard error from curve fitting. Here is the method: (§1) Isothermal titration calorimetry (ITC) assays were conducted with MicroCal iTC200 (Malvern Panalytical, UK). […] Both cell sample and titrant were equilibrated to ITC buffer consisting of 100 mM HEPES pH 7.9 with 2.5% (v/v) PEG 400. For ITC assays involving pterostilbene, PEG 400 concentration was increased to 5% (v/v). Each run incorporated an initial delay of 60 s prior to the first injection (0.5 μl) and spaced 150 s between the subsequent 19 injections (2.0 μl) at 25° C. During the runs, the cell was continuously stirred at 750 rpm by flat paddle. Results were analysed based on the 2nd to 20th injections using the Origin (MicroCal Software, USA) and PEAQ-ITC software (Malvern Panalytical, UK).
(In general: Isothermal titration calorimetry measures the heat released or taken up as one component is titrated into another.)

The test system of a further assay is SbSOMT I144N/F337N. The assay is described as follows: Catalytic assay, SbSOMT I144N/F337N mutant protein. The class given is biochemical, Sorghum bicolor. To be noted: resveratrol, one-hour incubation. The text has this: (§2) Data are expressed as yields relative to that of wild-type SbSOMT protein (WT). […] Data are expressed as yields relative to that of wild-type SbSOMT protein (WT). Values refer to means±SD (n=3). Asterisks indicate significant differences between mutant protein and WT (Student's t-test, ***: p<0.001). Tricin was used as an internal standard for quantitation. […] Dots represent individual data points.
(§3) Desired mutations of SbSOMT were introduced into its construct using specific primers (Table 11). Expression constructs were transformed into Rosetta™ (DE3) competent Escherichia coli cells (Novagen, Germany). Protein expression was induced with 0.1 mM Isopropyl-β-thiogalactopyranoside (IPTG) overnight at 16° C. E. coli cells were harvested, resuspended in lysis buffer (20 mM Tris buffer pH 7.9, 300 mM NaCl, 2.5 mM β-mercaptoethanol), and lysed by sonication. […]
(§4) For initial screening of OMT activities, purified OMT enzymes (10 μg) were incubated in 100 mM HEPES buffer (pH 7.9), 200 μM S-adenosyl-L-methionine (SAM) and 100 μM of phenylpropanoid or stilbene substrates (final volume 200 μl) at 30° C. for 2 h. Enzyme kinetics were determined by incubating 1 μg protein with 100 mM HEPES buffer (pH 7.9), 300 μM SAM, and stilbene concentrations ranging from 5 to 200 μM at 30° C. for 5 min. […]

In assay [1] the target is SbSOMT F337N. The assay is described as follows: ITC, SbSOMT F337N mutant protein. The class given is binding, Sorghum bicolor. The procedure:
Desired mutations of SbSOMT were introduced into its construct using specific primers (Table 11). Expression constructs were transformed into Rosetta™ (DE3) competent Escherichia coli cells (Novagen, Germany). Protein expression was induced with 0.1 mM Isopropyl-β-thiogalactopyranoside (IPTG) overnight at 16° C. E. coli cells were harvested, resuspended in lysis buffer (20 mM Tris buffer pH 7.9, 300 mM NaCl, 2.5 mM β-mercaptoethanol), and lysed by sonication. Crude proteins were loaded onto a HisTrap HP column (Cytiva, USA) connected to a AKTA pure chromatography system (Cytiva, USA). Column was washed with 15 column volumes of lysis buffer with 50 mM imidazole. Proteins were eluted over a gradient of 50-500 mM imidazole. Eluate fractions with the target OMT were pooled, digested with TEV protease, and simultaneously dialyzed against a low salt buffer (20 mM Tris pH 7.9, 50 mM NaCl, 2.5 mM β-mercaptoethanol) overnight at 4° C. The dialyzed sample was filtered and flowed through HisTrap to remove His-tagged components. The flowthrough was then loaded to HiTrap Q FF columns (Cytiva, USA) over a gradient of 50-1000 mM NaCl. […]
Isothermal titration calorimetry (ITC) assays were conducted with MicroCal iTC200 (Malvern Panalytical, UK). […] Results were analysed based on the 2nd to 20th injections using the Origin (MicroCal Software, USA) and PEAQ-ITC software (Malvern Panalytical, UK).

The target of another assay is SbSOMT (Sorghum bicolor, UniProt A0A1B6PFV1). The assay is described as follows: Isothermal titration calorimetry (ITC), SbSOMT wild type. The class given is binding. Here is the method:
as §1

In a further assay the target is SbSOMT E342A (Sorghum bicolor, UniProt A0A1B6PFV1, E342A). The experiment in a line: biochemical. The procedure:
(§5) Desired mutations of SbSOMT were introduced into its construct using specific primers (Table 11). Expression constructs were transformed into Rosetta™ (DE3) competent Escherichia coli cells (Novagen, Germany). Protein expression was induced with 0.1 mM Isopropyl-β-thiogalactopyranoside (IPTG) overnight at 16° C. E. coli cells were harvested, resuspended in lysis buffer (20 mM Tris buffer pH 7.9, 300 mM NaCl, 2.5 mM β-mercaptoethanol), and lysed by sonication. Crude proteins were loaded onto a HisTrap HP column (Cytiva, USA) connected to a AKTA pure chromatography system (Cytiva, USA). Column was washed with 15 column volumes of lysis buffer with 50 mM imidazole. Proteins were eluted over a gradient of 50-500 mM imidazole. Eluate fractions with the target OMT were pooled, digested with TEV protease, and simultaneously dialyzed against a low salt buffer (20 mM Tris pH 7.9, 50 mM NaCl, 2.5 mM β-mercaptoethanol) overnight at 4° C. The dialyzed sample was filtered and flowed through HisTrap to remove His-tagged components. The flowthrough was then loaded to HiTrap Q FF columns (Cytiva, USA) over a gradient of 50-1000 mM NaCl. Polishing was achieved via size-exclusion chromatography using the storage buffer (100 mM HEPES pH 7.9, 100 mM NaCl) as mobile phase. SsSTS was purified under the same conditions except that the pH was adjusted to 7.0 for all buffers. Proteins were concentrated by ultrafiltration and flash frozen for storage at −80° C.
as §1

Another assay concerns the target SbSOMT D283A (Sorghum bicolor, UniProt A0A1B6PFV1, D283A). The experiment in a line: biochemical. The procedure:
as §5, §1

Assay [2] concerns SbSOMT F337N. The assay is described as follows: Catalytic assay, SbSOMT F337N mutant protein. The note with it: SbSOMT F337N vs WT, resveratrol, one-hour incubation. The class given is biochemical, Sorghum bicolor.
Text: as §2, §3, §4

For a further assay, the system named is SbOMT4. The experiment in a line: In vitro OMT enzyme assay, recombinant SbOMT4. The assay is classed as biochemical, Sorghum bicolor. Here is the method:
(§6) To screen for OMT activities, purified stilbene products of enzyme assays were separated by a Synergi C18 column (Synergi 4μ Fusion RP 80 Å, 50×2 mm, Phenomenex, USA) under a flow rate of 0.5 ml min-1 over a 6 min linear gradient of 10%-90% B (described below). […] Meanwhile, purified phenylpropanoid products of enzyme assays were separated on the same column connected to a HP1100 series HPLC system (Agilent Technologies, USA) linked to an AP3200-QTRAP mass spectrometer (AB Sciex, China) operating under the multiple-reaction-monitoring (MRM) mode. To quantify these products, assay products were separated on a Kinetex C18 column (Kinetex 2.6 μm C18 100 Å, 100×2.1 mm, Phenomenex, USA) connected to a HP1100 series HPLC system (Agilent Technologies, USA) linked to an AP3200-QTRAP mass spectrometer (AB Sciex, China) operating under the multiple-reaction-monitoring (MRM) mode. A linear gradient of 10%-90% B under a flow rate of 0.3 ml min-1 over 6 min was used to further enhance sensitivity. Total metabolites from all plant tissues were separated by the same Kinetex C18 column connected to the X500R QTOF-HRMS system. A linear gradient under a flow rate of 0.3 ml min-1 over a 20 min linear gradient of 10%-90% B was used.
(§7) Reaction products were extracted twice with ethyl acetate. […] All reactions were done in triplicates.

The next assay concerns the target SbCOMT (Sorghum bicolor, UniProt Q84X55). The experiment in a line: In vitro OMT enzyme assay, recombinant SbCOMT. To be noted: two-hour incubation with 100 μM resveratrol. The class given is biochemical. The procedure:
as §6, §7

Like-named read-outs stand apart in the source and are kept apart here.

On to `Oc1ccc(C=Cc2cc(O)cc(O)c2)cc1` [Resveratrol, resveratrol], for which the equilibrium dissociation constant (Kd) was 2.78 ± 0.33 µM at SsCOMT; “No binding” at SbSOMT F337N [1]; “undetectable binding affinities” on SbSOMT F337N [1] (listed as resveratrol); 4.69 µM at SbSOMT; 11.1 ± 0.75 µM on SbSOMT E342A; 1.31 µM on SbSOMT D283A. For the same molecule, the SOMT activities result in the assay with SbSOMT I144N/F337N was “complete abolishment of SOMT activities”. Besides, the “Stoichiometry, N” value at SbSOMT E342A (SbSOMT mutant E342A, ITC) is 0.75 ± 0.01; at SbSOMT D283A (SbSOMT mutant D283A, ITC), 0.58 ± 0.01. For the same molecule, the “less pterostilbene produced compared to WT” value with SbSOMT F337N [2] was 97.7%. Also, the “more pinostilbene accumulated compared to WT” value in the assay on SbSOMT F337N [2] is listed as 50.8%. Further, in the assay with SbOMT4, the “SOMT activities with resveratrol as substrate” value is reported as “minimal SOMT activities”. The “resveratrol 3,5-bis-O-methylation activities” value on SbCOMT was “poor resveratrol 3,5-bis-O-methylation activities”.

One may read the Kd as the free concentration of one partner at which half of the binding sites on the other are occupied at equilibrium, for simple one-to-one binding. Low readings indicate tighter binding, high ones weaker binding.

For the origin of these results see patent US20250283056A1, “MODIFIED O-[…] USEFUL FOR PRODUCTION OF O-METHYLATED PHENOLIC NATURAL PRODUCTS” (The University of Hong Kong, priority 2024, published 2025).
